Reference: US9770423B2, “Modulation sAPP, sAAPα and BDNF levels in individuals diagnosed with FXS and ASD” (Indiana University Research and Technology Corp., priority 2012, dated 2017)
“And” between values parts separate entries of the source, which are not always exact repeats. Identical values can stand only once.

Assays:
[1] = safety measures and adverse effects in the FXS open-label trial; format: in vivo, human
Source text: Safety assessment and monitoring began at screen when all subjects underwent a medical history, physical examination, and full psychiatric interview. A physical examination was also completed at end point. Vital signs, including height and weight, were obtained at each study visit. At screen, genetic testing for FXS was obtained if record of molecular testing utilizing Southern Blot and PCR was not available. At screen, week 6, and endpoint, laboratory tests of blood and urine, including CBC with differential and platelets, electrolyte panel, liver associated enzymes, lipid panel, and urine pregnancy test (in females) were obtained. An electrocardiogram was also obtained at screen and endpoint.
The pilot study ran for 10 weeks. Safety lab screens were carried out at weeks 6 and 10. Physiologic parameters measured during the safety screens were as follows: vital signs, LFTs, electrolyte panels, CBC with diff/plts, lipid panel, glucose, urinalysis and ECG.
In-person clinical visits were scheduled for every two weeks. Telephonic evaluations were carried out at weeks 1, 3, and 5. Each subject was evaluated for side effects at every interaction with the practitioner.

[2] = test system: sAPP; experiment: plasma sAPP total by ELISA pre- and post-acamprosate; format: in vivo, human; conditions: individual patients 1-6, titled as diagnosed with FXS; after treatment
[3] = test system: drinking-in-the-dark mouse model; conditions: cited from earlier work
[4] = test system: NMDA glutamate receptor; conditions: animal studies; cited from earlier work
[5] = test system: leptin, beta endorphin, cortisol; conditions: humans with alcohol dependence; cited from earlier work
[6] = test system: glutamate or GABA receptors subtypes; conditions: xenopus oocyte model, clinically relevant concentrations; cited from earlier work
[7] = test system: youth with autistic disorder (idiopathic ASD); experiment: 12-week single-blind placebo lead-in trial of acamprosate in youth with autistic disorder: behavioral outcome measures; format: in vivo, human
Experimental: One study was a 12-week single-blind, placebo-controlled trial of acamprosate in 12 youths with autistic disorder was conducted. The primary outcome measured was the Clinical Global Impression Improvement (CGI-I) scale with several additional behavioral secondary outcome measures employed. In this study, secreted amyloid precursor protein (sAPP) was measured pre- and post acamprosate treatment as blood biomarker assay Result: Twelve subjects (mean age=10.4 yrs.) entered the study and nine subjects completed a two week placebo lead-in and entered active treatment (mean final dose=1,073 mg/day). Six of nine (67%) subjects receiving acamprosate were judged treatment responders with a CGI-I score of 1 “very much improved” or 2 “much improved”. […] Among secondary outcome measures analyzed, significant acamprosate-associated improvement was noted on measures of social behavior and hyperactivity. Acamprosate use was also associated with reductions in sAPP levels.
The first project enrolled 12 youth aged 5 to 17 years with fragile X syndrome and comorbid ASD in a 10-week open-label trial of acamprosate. The second project enrolled 12 youth aged 5 to 17 years diagnosed with idiopathic ASD in a 12-week single-blind placebo lead-in study of acamprosate. In both projects, concomitant dosing of psychotropic drugs remained stable throughout study. In each project, pre- and post-acamprosate treatment plasma levels of sAPP total and sAPPα were obtained. All APP assay samples were collected, chilled, and walked within 2 hours of blood draw to the lab for analysis. Plasma sAPP total and sAPPα were determined in […] using the ELISA kit obtained from Immuno Biological Laboratories (IBL, Gumma, Japan). The ELISA kit is validated to measure levels of sAPPα in human samples and able to detect as low as 0.09 ng/ml of sAPPα in a typical sample, with only 0.3% cross-reactivity to sAPPβ. Levels of sAPP total and sAPPα in plasma were reported in nanograms per milliliter (ng/mL). Statistical analysis of pre- and post-acamprosate sAPP total and sAPPα levels were conducted using paired T-tests. Finally an exploratory post-hoc analysis of potential correlation between percent change in sAPP total or sAPPα and percent change in scores on the Aberrant Behavior Checklist Social Withdrawal/Lethargy subscale (ABC-SW) was conducted. The ABC-SW measures social impairment which is a core symptom domain of ASD. Post-hoc analysis was done with Spearman correlation calculations. All data was analyzed in IBM SPSS Version 20.
A 12-week single-blind, placebo-controlled trial of the effect of acamprosate in the treatment of 12 youths with autistic disorder aged 5 to 17 years was carried out. In order to pilot test use of acamprosate in youth with autism targeting core social impairment, was conducted. All subjects and their family members were blinded to treatment status. All subjects participated in a 2 week placebo-lead-in phase prior to 10 weeks of treatment with acamprosate. For this project, enteric coated commercially available 333 mg acamprosate pills were over-encapsulated and identical matching placebo manufactured for the project. Placebo-responders, defined by a Clinical Global Impressions Improvement scale (CGI-I) score of 1 “very much improved” or 2 “much improved” (ratings anchored to core social deficits) at week 2 were asked to exit the study. During active treatment with acamprosate, dosing was increased in 333 mg increments per week over the first six weeks of active treatment to a maximum dose of 1,332 mg/day (weight<5 60 kg) or 1,998 mg/day (weight>60 kg). During the final four weeks of active drug treatment, subjects were maintained on a stable highest tolerated (optimal) dose. The primary outcome measure was the clinician-rated CGI-I anchored to symptoms of social impairment. […]

[8] = caregiver reported, 12 youth with FXS

Structure (SMILES): CC(=O)NCCCS(=O)(=O)O.[Ca] [acamprosate, Calcium Acetylhomotaurine]
- Increased body rocking, mild (number of patients) ([1]; 12 youth with FXS): 1
- ECG including QTc interval ([1]; FXS trial): no change in the QTc interval
- laboratory measures: lipids, electrolytes, liver function tests, blood counts ([1]; FXS trial): no clinically significant or mean changes
- weight, pulse, or blood pressure ([1]; FXS trial): No clinically significant changes
- overall tolerability ([1]; FXS trial, 12 subjects): well tolerated overall, with no severe or serious adverse effects
- Constipation, mild (n subjects) [1, 8]: 1
- Diarrhea, mild (n subjects) [1, 8]: 1
- Increased Anxiety, mild (n subjects) [1, 8]: 1
- Increased Repetitive Behavior, mild (n subjects) [1, 8]: 2
- Insomnia, mild (n subjects) [1, 8]: 1
- Irritability, mild (n subjects) [1, 8]: 4
- Nightmares, mild (n subjects) [1, 8]: 1
- Rhinitis, mild (n subjects) [1, 8]: 1
- Urinary Urgency, mild (n subjects) [1, 8]: 1
- subjects who experienced a mild adverse event ([1]; nine of 12 subjects, FXS trial): 75%
- sAPP (total)-CP, Week 12 [2]: 5.561 ng/mL and 25.16 ng/mL and 12.84 ng/mL and 8.077 ng/mL and 56.8 ng/mL and 7.547 ng/mL
- alcohol intake [3]: reduced alcohol intake
- action at the NMDA glutamate receptor [4]: bind and act as an antagonist
- hormone levels [5]: lowers levels of several hormones: leptin, beta endorphin, cortisol
- direct binding to glutamate or GABA receptors subtypes [6]: no direct binding
- CGI-S at endpoint ([7]; autistic disorder, baseline 4.22+/-0.4, p=0.013): 3.7+/−0.5
- ABC Lethargy/Social Withdrawal subscale (ABC-SW) at endpoint ([7]; autistic disorder, baseline 14.1+/-8.5, p=0.019): 10.0+/−8.4
- ABC Hyperactivity subscale at endpoint ([7]; autistic disorder, baseline 25.4+/-12.6, p=0.005): 16.6+/−12.4
- ADHD-RS at endpoint ([7]; autistic disorder, baseline 29.5+/-10.4, p=0.002): 20.75+/−9.7
- SRS total raw score at endpoint ([7]; autistic disorder, baseline 107+/-28, p=0.002): 91.4+/−30
- mean CGI-I at last visit ([7]; nine subjects, last observation carried forward): 2
- treatment responders, number of subjects ([7]; of 9 youth with idiopathic ASD): 6
- treatment responders (CGI-I score of 1 or 2) ([7]; six of nine subjects receiving acamprosate, autistic disorder, mean final dose 1,073 mg/day): 67%
